Reference: PubChem BioAssay (NCI)
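Five compound concentrations were applied to cells in 96-well plates for 48 hours; endpoints were derived by simple linear interpolation of the resulting dose-response curve. GI50 marks 50% less growth. At the TGI there is no net growth.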

Tests used:
Assay in all cases: growth of human tumour cells (NCI), 48 h
HCC-2998 colon = test system: HCC-2998 colon
TK-10 renal = test system: TK-10 renal
LOX IMVI melanoma = test system: LOX IMVI melanoma
K-562 leukemia = test system: K-562 leukemia
HS 578T breast = test system: HS 578T breast
SN12C renal = test system: SN12C renal
HL-60(TB) leukemia = test system: HL-60(TB) leukemia
MDA-MB-231 breast = test system: MDA-MB-231 breast
HOP-92 NSCLC = test system: HOP-92 NSCLC
SNB-19 CNS = test system: SNB-19 CNS
T-47D breast = test system: T-47D breast
SK-MEL-28 melanoma = test system: SK-MEL-28 melanoma
SW-620 colon = test system: SW-620 colon
EKVX NSCLC = test system: EKVX NSCLC
UO-31 renal = test system: UO-31 renal
OVCAR-8 ovarian = test system: OVCAR-8 ovarian
IGROV1 ovarian = test system: IGROV1 ovarian
MCF7 breast = test system: MCF7 breast
M14 melanoma = test system: M14 melanoma
SF-295 CNS = test system: SF-295 CNS
U251 CNS = test system: U251 CNS
KM12 colon = test system: KM12 colon
A549 NSCLC = test system: A549 NSCLC
BT-549 breast = test system: BT-549 breast
SK-MEL-5 melanoma = test system: SK-MEL-5 melanoma
SK-MEL-2 melanoma = test system: SK-MEL-2 melanoma
SF-268 CNS = test system: SF-268 CNS
NCI-H23 lung = test system: NCI-H23 lung
HOP-62 NSCLC = test system: HOP-62 NSCLC
NCI-H226 lung = test system: NCI-H226 lung
MDA-MB-435 = test system: MDA-MB-435
UACC-62 melanoma = test system: UACC-62 melanoma
OVCAR-3 ovarian = test system: OVCAR-3 ovarian
786-0 renal = test system: 786-0 renal
HCT-15 colon = test system: HCT-15 colon
MALME-3M melanoma = test system: MALME-3M melanoma
CCRF-CEM leukemia = test system: CCRF-CEM leukemia
UACC-257 melanoma = test system: UACC-257 melanoma
A498 renal = test system: A498 renal
SF-539 CNS = test system: SF-539 CNS
ACHN renal = test system: ACHN renal
RXF 393 renal = test system: RXF 393 renal
DU-145 prostate = test system: DU-145 prostate
RPMI-8226 leukemia = test system: RPMI-8226 leukemia
SR leukemia = test system: SR leukemia
SNB-75 CNS = test system: SNB-75 CNS
HT29 colon = test system: HT29 colon
NCI-H522 lung = test system: NCI-H522 lung
OVCAR-5 ovarian = test system: OVCAR-5 ovarian
CAKI-1 renal = test system: CAKI-1 renal
NCI-H460 lung = test system: NCI-H460 lung
PC-3 prostate = test system: PC-3 prostate
COLO 205 colon = test system: COLO 205 colon
SK-OV-3 ovarian = test system: SK-OV-3 ovarian
OVCAR-4 ovarian = test system: OVCAR-4 ovarian
HCT-116 colon = test system: HCT-116 colon
NCI/ADR-RES ovarian = test system: NCI/ADR-RES ovarian
MOLT-4 leukemia = test system: MOLT-4 leukemia

SMILES: CCO/C=N/C1=C(C#N)C(c2ccc(F)cc2)c2sc3c(CC)cccc3c2O1 (stereo unspecified)
- GI50 (HCC-2998 colon): 641 nM
- TGI (HCC-2998 colon): 6650 nM
- GI50 (TK-10 renal): 8080 nM
- TGI (TK-10 renal): 24000 nM
- GI50 (LOX IMVI melanoma): 732 nM
- TGI (LOX IMVI melanoma): 11100 nM
- GI50 (K-562 leukemia): 292 nM
- TGI (K-562 leukemia): 13600 nM
- GI50 (HS 578T breast): 385 nM
- TGI (HS 578T breast): 13000 nM
- GI50 (SN12C renal): 609 nM
- TGI (SN12C renal): 12800 nM
- GI50 (HL-60(TB) leukemia): 337 nM
- TGI (HL-60(TB) leukemia): 5250 nM
- GI50 (MDA-MB-231 breast): 664 nM
- TGI (MDA-MB-231 breast): 14300 nM
- GI50 (HOP-92 NSCLC): 193 nM
- TGI (HOP-92 NSCLC): 6120 nM
- GI50 (SNB-19 CNS): 466 nM
- TGI (SNB-19 CNS): 15800 nM
- GI50 (T-47D breast): 440 nM
- TGI (T-47D breast): 26500 nM
- GI50 (SK-MEL-28 melanoma): 1280 nM
- TGI (SK-MEL-28 melanoma): 19700 nM
- GI50 (SW-620 colon): 478 nM
- TGI (SW-620 colon): 13400 nM
- GI50 (EKVX NSCLC): 488 nM
- TGI (EKVX NSCLC): 16700 nM
- GI50 (UO-31 renal): 637 nM
- TGI (UO-31 renal): 17000 nM
- GI50 (OVCAR-8 ovarian): 508 nM
- TGI (OVCAR-8 ovarian): 15300 nM
- GI50 (IGROV1 ovarian): 401 nM
- TGI (IGROV1 ovarian): 14100 nM
- GI50 (MCF7 breast): 361 nM
- TGI (MCF7 breast): 12500 nM
- GI50 (M14 melanoma): 292 nM
- TGI (M14 melanoma): 12800 nM
- GI50 (SF-295 CNS): 270 nM
- TGI (SF-295 CNS): 2600 nM
- GI50 (U251 CNS): 468 nM
- TGI (U251 CNS): 11800 nM
- GI50 (KM12 colon): 384 nM
- TGI (KM12 colon): 13500 nM
- GI50 (A549 NSCLC): 518 nM
- TGI (A549 NSCLC): 14200 nM
- GI50 (BT-549 breast): 1690 nM
- TGI (BT-549 breast): 8530 nM
- GI50 (SK-MEL-5 melanoma): 482 nM
- TGI (SK-MEL-5 melanoma): 11400 nM
- GI50 (SK-MEL-2 melanoma): 597 nM
- TGI (SK-MEL-2 melanoma): 21500 nM
- GI50 (SF-268 CNS): 2030 nM
- TGI (SF-268 CNS): 17400 nM
- GI50 (NCI-H23 lung): 763 nM
- TGI (NCI-H23 lung): 14400 nM
- GI50 (HOP-62 NSCLC): 453 nM
- TGI (HOP-62 NSCLC): 17600 nM
- GI50 (NCI-H226 lung): 1030 nM
- TGI (NCI-H226 lung): 11600 nM
- GI50 (MDA-MB-435): 160 nM
- TGI (MDA-MB-435): 446 nM
- GI50 (UACC-62 melanoma): 371 nM
- TGI (UACC-62 melanoma): 17600 nM
- GI50 (OVCAR-3 ovarian): 454 nM
- TGI (OVCAR-3 ovarian): 13000 nM
- GI50 (786-0 renal): 651 nM
- TGI (786-0 renal): 13200 nM
- GI50 (HCT-15 colon): 389 nM
- TGI (HCT-15 colon): 10900 nM
- GI50 (MALME-3M melanoma): 542 nM
- TGI (MALME-3M melanoma): 23800 nM
- GI50 (CCRF-CEM leukemia): 282 nM
- TGI (CCRF-CEM leukemia): 6320 nM
- GI50 (UACC-257 melanoma): 12700 nM
- TGI (UACC-257 melanoma): 31300 nM
- GI50 (A498 renal): 199 nM
- TGI (A498 renal): 897 nM
- GI50 (SF-539 CNS): 280 nM
- TGI (SF-539 CNS): 1230 nM
- GI50 (ACHN renal): 711 nM
- TGI (ACHN renal): 14100 nM
- GI50 (RXF 393 renal): 177 nM
- TGI (RXF 393 renal): 531 nM
- GI50 (DU-145 prostate): 401 nM
- TGI (DU-145 prostate): 13000 nM
- GI50 (RPMI-8226 leukemia): 331 nM
- TGI (RPMI-8226 leukemia): 5520 nM
- GI50 (SR leukemia): 451 nM
- TGI (SR leukemia): 14900 nM
- GI50 (SNB-75 CNS): 206 nM
- TGI (SNB-75 CNS): 2830 nM
- GI50 (HT29 colon): 351 nM
- TGI (HT29 colon): 11200 nM
- GI50 (NCI-H522 lung): 209 nM
- TGI (NCI-H522 lung): 5610 nM
- GI50 (OVCAR-5 ovarian): 670 nM
- TGI (OVCAR-5 ovarian): 14600 nM
- GI50 (CAKI-1 renal): 359 nM
- TGI (CAKI-1 renal): 17100 nM
- GI50 (NCI-H460 lung): 379 nM
- TGI (NCI-H460 lung): 5260 nM
- GI50 (PC-3 prostate): 236 nM
- TGI (PC-3 prostate): 11400 nM
- GI50 (COLO 205 colon): 400 nM
- TGI (COLO 205 colon): 2840 nM
- GI50 (SK-OV-3 ovarian): 812 nM
- TGI (SK-OV-3 ovarian): 21600 nM
- GI50 (OVCAR-4 ovarian): 1570 nM
- TGI (OVCAR-4 ovarian): 17800 nM
- GI50 (HCT-116 colon): 395 nM
- TGI (HCT-116 colon): 11200 nM
- GI50 (NCI/ADR-RES ovarian): 226 nM
- TGI (NCI/ADR-RES ovarian): 3660 nM
- GI50 (MOLT-4 leukemia): 629 nM
- TGI (MOLT-4 leukemia): 13400 nM
